Laboratory results from patent US6503935B1, “Imidazoles and related compounds as α1A agonists” (Abbott Laboratories, priority 1998, dated 2003).
Counter-ions that a name gives are not always drawn. Like-named read-outs stand apart in the source and are kept apart here.

Assays:
[1] = target: T1, α1b (hamster receptor expressed in mouse fibroblasts) (Mesocricetus auratus, UniProt P18841); assay: Radioligand binding with [3H]-prazosin, α1b
T1 construct: expressed in transfected cells; host or cells: mouse fibroblasts
T1 sequence (P18841 1-515): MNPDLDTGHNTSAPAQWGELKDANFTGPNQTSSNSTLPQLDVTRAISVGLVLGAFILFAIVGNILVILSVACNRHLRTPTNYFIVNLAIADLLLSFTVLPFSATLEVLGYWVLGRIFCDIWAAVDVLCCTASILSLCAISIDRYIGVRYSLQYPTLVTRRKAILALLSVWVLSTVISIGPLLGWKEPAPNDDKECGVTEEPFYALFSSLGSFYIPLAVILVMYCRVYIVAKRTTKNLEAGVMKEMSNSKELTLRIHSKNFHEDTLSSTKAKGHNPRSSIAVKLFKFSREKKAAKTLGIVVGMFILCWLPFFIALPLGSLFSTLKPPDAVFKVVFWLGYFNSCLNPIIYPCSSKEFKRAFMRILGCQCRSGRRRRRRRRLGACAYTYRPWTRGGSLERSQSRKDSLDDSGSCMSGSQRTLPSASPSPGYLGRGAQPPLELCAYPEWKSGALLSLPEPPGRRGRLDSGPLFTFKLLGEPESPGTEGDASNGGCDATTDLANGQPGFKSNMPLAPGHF
Summary of the method: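 Radioligand binding with [3H]-prazosin: α1A from rat submaxillary gland; α1b hamster receptor and α1d rat receptor, each expressed in mouse fibroblasts.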

[2] = hamster receptor expressed in mouse fibroblasts, [3H]-prazosin, read-out: Radioligand Binding Ki α1b (Hamster)

Row | Structure (SMILES) | Ki [1] | Ki [1, 2] | melting point
1 | C=C(c1cccc(NS(=O)(=O)CC)c1)c1c[nH]cn1 [Example 45, N-{3-[1-(1H-imidazol-4-yl)vinyl]phenyly}ethanesulfonamide, maleate] | 1.73 µM |  | 
2 | CCS(=O)(=O)Nc1cccc2c1CCCC2c1c[nH]cn1.O=C(O)/C=C\C(=O)O (stereo not drawn) [Example 12, N-[5-(1H-imidazol-4-yl)-5,6,7,8-tetrahydro-1-naphthalenyl]ethanesulfonamide, maleate] |  | 6.98 µM | 
3 | CCS(=O)(=O)Nc1cccc2c1CCCC2c1c[nH]cn1.O=C(O)/C=C\C(=O)O (single isomer, unassigned; (+)) [Example 33, (+)-N-[5-(1H-imidazol-4-yl)-5,6,7,8-tetrahydro-1-naphthalenyl]ethanesulfonamide, maleate] |  | 1.3 µM | 
4 | CCS(=O)(=O)Nc1cccc(Cc2c[nH]cn2)c1C.O=C(O)/C=C\C(=O)O [Example 29, N-[3-(1H-imidazol-4-ylmethyl)-2-methylphenyl]ethanesulfonamide, maleate] | 3.88 µM |  | 
5 | CS(=O)(=O)Nc1cccc(Cc2c[nH]cn2)c1.O=C(O)/C=C\C(=O)O [Example 21, N-[3-(1H-imidazol-4-ylmethyl)phenyl]methanesulfonamide, maleate] | 1.27 µM |  | 142 to 144 °C
